Assay results taken from ChEMBL document CHEMBL4706534, “1,2,3-Triazole-containing hybrids with potential antibacterial activity against methicillin-resistant Staphylococcus aureus (MRSA)” (Eur J Med Chem, 2020).
≈ marks a conversion by molar mass, not a printed value.

How the values were obtained:
Staphylococcus aureus [1] = experiment: Antibiofilm activity against methicillin-resistant Staphylococcus aureus ATCC BAA-44 incubated for 24 hrs by crystal violet-staining based assay; assay type: functional, organism-based; conditions: ATCC BAA-44, 24 h
Staphylococcus aureus [2] = experiment: Potentiation of oxacillin-induced antibacterial activity against methicillin-resistant Staphylococcus aureus ATCC BAA-44 assessed as reduction in oxacillin MIC preincubated for 30 mins followed by oxacillin addition and measured after 16 hrs by broth microdilution method; assay type: functional; conditions: time 16.5 hrs
Staphylococcus aureus [3] = experiment: Antibacterial activity against Methicillin-resistant Staphylococcus aureus ATCC 33591; assay type: functional, organism-based
Staphylococcus aureus [4] = experiment: Antibacterial activity against methicillin-sensitive Staphylococcus aureus ATCC 29213 by broth microdilution method; assay type: functional
Staphylococcus aureus [5] = experiment: Antibacterial activity against methicillin-resistant Staphylococcus aureus ATCC 33591 by broth microdilution method; assay type: functional

| Compound | IC50 (Staphylococcus aureus [1]) [nM] | fold change (FC) (Staphylococcus aureus [2]) | MIC (Staphylococcus aureus [3]) [µg/mL] | other results |
| --- | --- | --- | --- | --- |
| C/C(=C/c1ccccc1)Cn1cc(CCCCCc2nc(N)[nH]c2-c2cc(F)cc(F)c2)nn1 | 1340 | 2 | – | – |
| CN[C@H](CC(C)C)C(=O)N[C@@H]1Cc2ccc(c(Cl)c2)Oc2cc3cc(c2O[C@@H]2O[C@H](CO)[C@@H](O)[C@H](O)[C@H]2O[C@H]2C[C@](C)(N)[C@H](O)[C@H](C)O2)Oc2ccc(cc2Cl)[C@@H](O)[C@@H]2NC(=O)[C@H](NC(=O)[C@@H]3NC(=O)[C@H](CC(=O)O)NC1=O)c1ccc(O)c(c1)-c1c(O)cc(O)cc1[C@H](C(=O)NCCCCCc1cn(CCCCNC(=O)[C@@H]3NC(=O)[C@H]4NC(=O)[C@H](NC(=O)[C@@H]5NC(=O)[C@H](CC(=O)O)NC(=O)[C@H](NC(=O)[C@@H](CC(C)C)NC)Cc6ccc(c(Cl)c6)Oc6cc5cc(c6O[C@@H]5O[C@H](CO)[C@@H](O)[C@H](O)[C@H]5O[C@H]5C[C@](C)(N)[C@H](O)[C@H](C)O5)Oc5ccc(cc5Cl)[C@H]4O)c4ccc(O)c(c4)-c4c(O)cc(O)cc43)nn1)NC2=O | – | – | 1.3 (≈ 0.425 µM) | – |
| CC(=O)N[C@H]1[C@H](O[C@@H]2c3ccc(c(Cl)c3)Oc3cc4cc(c3O)Oc3ccc(cc3Cl)C[C@H]3NC(=O)[C@H](n5cc(COC[C@H]6O[C@@H]7OC(C)(C)O[C@@H]7[C@H]7OC(C)(C)O[C@H]76)nn5)c5ccc(O)c(c5)Oc5cc(O)cc(c5)[C@H](NC3=O)C(=O)N[C@H]4C(=O)N[C@H]3C(=O)N[C@@H]2C(=O)N[C@@H](C(=O)O)c2cc(O)cc(O)c2-c2cc3ccc2O)O[C@H](CO)[C@@H](O)[C@@H]1O | – | – | – | MIC (Staphylococcus aureus [4]): 0.5 µg/mL (≈ 0.29 µM); MIC (Staphylococcus aureus [5]): 0.5 µg/mL (≈ 0.29 µM) |
| CC(=O)N[C@H]1[C@H](O[C@@H]2c3ccc(c(Cl)c3)Oc3cc4cc(c3O)Oc3ccc(cc3Cl)C[C@H]3NC(=O)[C@H](n5cc(COc6ccccc6)nn5)c5ccc(O)c(c5)Oc5cc(O)cc(c5)[C@H](NC3=O)C(=O)N[C@H]4C(=O)N[C@H]3C(=O)N[C@@H]2C(=O)N[C@@H](C(=O)O)c2cc(O)cc(O)c2-c2cc3ccc2O)O[C@H](CO)[C@@H](O)[C@@H]1O | – | – | – | MIC (Staphylococcus aureus [4]): 0.5 µg/mL (≈ 0.32 µM); MIC (Staphylococcus aureus [5]): 0.5 µg/mL (≈ 0.32 µM) |
| CN[C@H](CC(C)C)C(=O)N[C@@H]1Cc2ccc(c(Cl)c2)Oc2cc3cc(c2O[C@@H]2O[C@H](CO)[C@@H](O)[C@H](O)[C@H]2O[C@H]2C[C@](C)(N)[C@H](O)[C@H](C)O2)Oc2ccc(cc2Cl)[C@@H](O)[C@@H]2NC(=O)[C@H](NC(=O)[C@@H]3NC(=O)[C@H](CC(=O)O)NC1=O)c1ccc(O)c(c1)-c1c(O)cc(O)cc1[C@H](C(=O)NCCCn1cc(CNC(=O)[C@@H]3NC(=O)[C@H]4NC(=O)[C@H](NC(=O)[C@@H]5NC(=O)[C@H](CC(=O)O)NC(=O)[C@H](NC(=O)[C@@H](CC(C)C)NC)Cc6ccc(c(Cl)c6)Oc6cc5cc(c6O[C@@H]5O[C@H](CO)[C@@H](O)[C@H](O)[C@H]5O[C@H]5C[C@](C)(N)[C@H](O)[C@H](C)O5)Oc5ccc(cc5Cl)[C@H]4O)c4ccc(O)c(c4)-c4c(O)cc(O)cc43)nn1)NC2=O | – | – | 1.3 (≈ 0.435 µM) | – |
| CCCc1ccc(/C=C(/C)Cn2cc(CCCCCc3nc(N)[nH]c3-c3ccccc3)nn2)cc1 | 1420 | 2 | – | – |
| CC(=O)N[C@H]1[C@H](O[C@@H]2c3ccc(c(Cl)c3)Oc3cc4cc(c3O)Oc3ccc(cc3Cl)C[C@H]3NC(=O)[C@H](n5cc(CO[C@H]6[C@@H](OCc7ccccc7)[C@@H](COCc7ccccc7)O[C@@H](O[C@H]7[C@H](OCc8ccccc8)[C@@H](OCc8ccccc8)[C@H](Sc8ccccc8)O[C@@H]7COCc7ccccc7)[C@@H]6OCc6ccccc6)nn5)c5ccc(O)c(c5)Oc5cc(O)cc(c5)[C@H](NC3=O)C(=O)N[C@H]4C(=O)N[C@H]3C(=O)N[C@@H]2C(=O)N[C@@H](C(=O)O)c2cc(O)cc(O)c2-c2cc3ccc2O)O[C@H](CO)[C@@H](O)[C@@H]1O | – | – | – | MIC (Staphylococcus aureus [4]): 32 µg/mL (≈ 13.1 µM); MIC (Staphylococcus aureus [5]): 32 µg/mL (≈ 13.1 µM) |
| C/C(=C/c1ccccc1)Cn1cc(CCCCCc2nc(N)[nH]c2-c2ccc(C(C)C)cc2)nn1 | 1340 | 2 | – | – |
| CC(=O)N[C@H]1[C@H](O[C@@H]2c3ccc(c(Cl)c3)Oc3cc4cc(c3O)Oc3ccc(cc3Cl)C[C@H]3NC(=O)[C@H](n5cc(COc6cccc7ccccc67)nn5)c5ccc(O)c(c5)Oc5cc(O)cc(c5)[C@H](NC3=O)C(=O)N[C@H]4C(=O)N[C@H]3C(=O)N[C@@H]2C(=O)N[C@@H](C(=O)O)c2cc(O)cc(O)c2-c2cc3ccc2O)O[C@H](CO)[C@@H](O)[C@@H]1O | – | – | – | MIC (Staphylococcus aureus [4]): 0.5 µg/mL (≈ 0.31 µM); MIC (Staphylococcus aureus [5]): 0.5 µg/mL (≈ 0.31 µM) |
| C/C(=C/c1ccccc1)Cn1cc(CCCCCc2nc(N)[nH]c2-c2ccc(-c3ccccc3)cc2)nn1 | 1340 | 2 | – | – |
| CCCCCCCCOCc1cn([C@H]2C(=O)N[C@@H]3Cc4ccc(c(Cl)c4)Oc4cc5cc(c4O)Oc4ccc(cc4Cl)[C@@H](O[C@@H]4O[C@H](CO)[C@@H](O)[C@H](O)[C@H]4NC(C)=O)[C@@H]4NC(=O)[C@H](NC(=O)[C@@H]5NC(=O)[C@@H](NC3=O)c3cc(O)cc(c3)Oc3cc2ccc3O)c2ccc(O)c(c2)-c2c(O)cc(O)cc2[C@H](C(=O)O)NC4=O)nn1 | – | – | – | MIC (Staphylococcus aureus [4]): 0.5 µg/mL (≈ 0.313 µM); MIC (Staphylococcus aureus [5]): 0.5 µg/mL (≈ 0.313 µM) |
| CCCCCCCCCCCC/C=C(/C)Cn1cc(CCCCCc2nc(N)[nH]c2-c2ccccc2)nn1 | 1420 | 2 | – | – |
| C/C(=C/CC1CCCCC1)Cn1cc(CCCCCc2nc(N)[nH]c2-c2ccccc2)nn1 | 1420 | 2 | – | – |
| CN[C@H](CC(C)C)C(=O)N[C@@H]1Cc2ccc(c(Cl)c2)Oc2cc3cc(c2O[C@@H]2O[C@H](CO)[C@@H](O)[C@H](O)[C@H]2O[C@H]2C[C@](C)(N)[C@H](O)[C@H](C)O2)Oc2ccc(cc2Cl)[C@@H](O)[C@@H]2NC(=O)[C@H](NC(=O)[C@@H]3NC(=O)[C@H](CC(=O)O)NC1=O)c1ccc(O)c(c1)-c1c(O)cc(O)cc1[C@H](C(=O)NCCCCCc1cn(CCNC(=O)[C@@H]3NC(=O)[C@H]4NC(=O)[C@H](NC(=O)[C@@H]5NC(=O)[C@H](CC(=O)O)NC(=O)[C@H](NC(=O)[C@@H](CC(C)C)NC)Cc6ccc(c(Cl)c6)Oc6cc5cc(c6O[C@@H]5O[C@H](CO)[C@@H](O)[C@H](O)[C@H]5O[C@H]5C[C@](C)(N)[C@H](O)[C@H](C)O5)Oc5ccc(cc5Cl)[C@H]4O)c4ccc(O)c(c4)-c4c(O)cc(O)cc43)nn1)NC2=O | – | – | 1.3 (≈ 0.429 µM) | – |
| COc1ccc(-c2[nH]c(N)nc2CCCCCc2cn(C/C(C)=C\c3ccccc3)nn2)cc1 | 1340 | 2 | – | – |
| CN[C@H](CC(C)C)C(=O)N[C@@H]1Cc2ccc(c(Cl)c2)Oc2cc3cc(c2O[C@@H]2O[C@H](CO)[C@@H](O)[C@H](O)[C@H]2O[C@H]2C[C@](C)(N)[C@H](O)[C@H](C)O2)Oc2ccc(cc2Cl)[C@@H](O)[C@@H]2NC(=O)[C@H](NC(=O)[C@@H]3NC(=O)[C@H](CC(=O)O)NC1=O)c1ccc(O)c(c1)-c1c(O)cc(O)cc1[C@H](C(=O)NCCc1cn(CCNC(=O)[C@@H]3NC(=O)[C@H]4NC(=O)[C@H](NC(=O)[C@@H]5NC(=O)[C@H](CC(=O)O)NC(=O)[C@H](NC(=O)[C@@H](CC(C)C)NC)Cc6ccc(c(Cl)c6)Oc6cc5cc(c6O[C@@H]5O[C@H](CO)[C@@H](O)[C@H](O)[C@H]5O[C@H]5C[C@](C)(N)[C@H](O)[C@H](C)O5)Oc5ccc(cc5Cl)[C@H]4O)c4ccc(O)c(c4)-c4c(O)cc(O)cc43)nn1)NC2=O | – | – | 1.3 (≈ 0.435 µM) | – |
| CN[C@H](CC(C)C)C(=O)N[C@@H]1Cc2ccc(c(Cl)c2)Oc2cc3cc(c2O[C@@H]2O[C@H](CO)[C@@H](O)[C@H](O)[C@H]2O[C@H]2C[C@](C)(N)[C@H](O)[C@H](C)O2)Oc2ccc(cc2Cl)[C@@H](O)[C@@H]2NC(=O)[C@H](NC(=O)[C@@H]3NC(=O)[C@H](CC(=O)O)NC1=O)c1ccc(O)c(c1)-c1c(O)cc(O)cc1[C@H](C(=O)NCCCCCc1cn(CCCCCNC(=O)[C@@H]3NC(=O)[C@H]4NC(=O)[C@H](NC(=O)[C@@H]5NC(=O)[C@H](CC(=O)O)NC(=O)[C@H](NC(=O)[C@@H](CC(C)C)NC)Cc6ccc(c(Cl)c6)Oc6cc5cc(c6O[C@@H]5O[C@H](CO)[C@@H](O)[C@H](O)[C@H]5O[C@H]5C[C@](C)(N)[C@H](O)[C@H](C)O5)Oc5ccc(cc5Cl)[C@H]4O)c4ccc(O)c(c4)-c4c(O)cc(O)cc43)nn1)NC2=O | – | – | 1.3 (≈ 0.423 µM) | – |
| CN[C@H](CC(C)C)C(=O)N[C@@H]1Cc2ccc(c(Cl)c2)Oc2cc3cc(c2O[C@@H]2O[C@H](CO)[C@@H](O)[C@H](O)[C@H]2O[C@H]2C[C@](C)(N)[C@H](O)[C@H](C)O2)Oc2ccc(cc2Cl)[C@@H](O)[C@@H]2NC(=O)[C@H](NC(=O)[C@@H]3NC(=O)[C@H](CC(=O)O)NC1=O)c1ccc(O)c(c1)-c1c(O)cc(O)cc1[C@H](C(=O)NCCCCCCn1cc(CCCNC(=O)[C@@H]3NC(=O)[C@H]4NC(=O)[C@H](NC(=O)[C@@H]5NC(=O)[C@H](CC(=O)O)NC(=O)[C@H](NC(=O)[C@@H](CC(C)C)NC)Cc6ccc(c(Cl)c6)Oc6cc5cc(c6O[C@@H]5O[C@H](CO)[C@@H](O)[C@H](O)[C@H]5O[C@H]5C[C@](C)(N)[C@H](O)[C@H](C)O5)Oc5ccc(cc5Cl)[C@H]4O)c4ccc(O)c(c4)-c4c(O)cc(O)cc43)nn1)NC2=O | – | – | 1.3 (≈ 0.425 µM) | – |
| C/C(=C/c1ccccc1)Cn1cc(CCCCCc2nc(N)[nH]c2-c2ccc(F)cc2)nn1 | 1340 | 2 | – | – |
| CN[C@H](CC(C)C)C(=O)N[C@@H]1Cc2ccc(c(Cl)c2)Oc2cc3cc(c2O[C@@H]2O[C@H](CO)[C@@H](O)[C@H](O)[C@H]2O[C@H]2C[C@](C)(N)[C@H](O)[C@H](C)O2)Oc2ccc(cc2Cl)[C@@H](O)[C@@H]2NC(=O)[C@H](NC(=O)[C@@H]3NC(=O)[C@H](CC(=O)O)NC1=O)c1ccc(O)c(c1)-c1c(O)cc(O)cc1[C@H](C(=O)NCCn1cc(CNC(=O)[C@@H]3NC(=O)[C@H]4NC(=O)[C@H](NC(=O)[C@@H]5NC(=O)[C@H](CC(=O)O)NC(=O)[C@H](NC(=O)[C@@H](CC(C)C)NC)Cc6ccc(c(Cl)c6)Oc6cc5cc(c6O[C@@H]5O[C@H](CO)[C@@H](O)[C@H](O)[C@H]5O[C@H]5C[C@](C)(N)[C@H](O)[C@H](C)O5)Oc5ccc(cc5Cl)[C@H]4O)c4ccc(O)c(c4)-c4c(O)cc(O)cc43)nn1)NC2=O | – | – | 1.3 (≈ 0.437 µM) | – |
